Tests used:
[1] = target: T1, WT HSC70-NBD (Homo sapiens, UniProt P11142); assay: SPR binding to wild-type HSC70-NBD
T1 construct: WT HSPA8 (HSC70) residues 1 to 381; GST (N, cleaved yes); made in house; host or cells: E. coli BL21-AI (expressed as described for FL-HSP72)
Procedure: (§1) SPR experiments were carried out using a Biacore T200 (GE Healthcare) at 25 °C. Amine coupling chemistry was used to immobilise the HSC70 NBD domain and S275W, S275F and S275A HSC70-NBD mutant proteins on a carboxymethyl-5′-dextran (CM5) sensor chip. The chip’s surface was activated with a 10 min injection of a 1:1 mixture of 100 mM N-hydroxysuccinimide and 400 mM 1-ethyl-3-(3-dimethylaminopropyl)-carbodiimide. […] The remaining activated groups on the surface were blocked with a 7 min injection of 1 M ethanolamine at pH 8.5. […] Flow cell one was left unmodified as the reference surface.
(§2) In addition, a DMSO correction curve, prepared as described in the GE manual, was used to correct the effects of the solvent on signal intensity. Raw SPR data from the single point screen was processed and analysed using Pipeline Pilot version 8.0.1.500[37]. Firstly, the reported binding level for each fragment was corrected by subtraction of the buffer blank.
(§3) The initial fragment hits were further investigated in a three-point concentration-response experiment against freshly immobilised WT HSC70-NBD and the S275W HSC70-NBD mutants using the same experimental protocol as for the primary screen. Compound dilutions of 50, 100 and 200 μM were generated using the ECHO 550.

[2] = target: T2, S275W HSC70-NBD (Homo sapiens, UniProt P11142, S275W); assay: SPR binding to S275W HSC70-NBD mutant
T2 construct: WT HSPA8 (HSC70) residues 1 to 381; GST (N, cleaved yes); made in house; host or cells: E. coli BL21-AI (expressed as described for FL-HSP72)
T2 sequence (P11142 1-381 S275W): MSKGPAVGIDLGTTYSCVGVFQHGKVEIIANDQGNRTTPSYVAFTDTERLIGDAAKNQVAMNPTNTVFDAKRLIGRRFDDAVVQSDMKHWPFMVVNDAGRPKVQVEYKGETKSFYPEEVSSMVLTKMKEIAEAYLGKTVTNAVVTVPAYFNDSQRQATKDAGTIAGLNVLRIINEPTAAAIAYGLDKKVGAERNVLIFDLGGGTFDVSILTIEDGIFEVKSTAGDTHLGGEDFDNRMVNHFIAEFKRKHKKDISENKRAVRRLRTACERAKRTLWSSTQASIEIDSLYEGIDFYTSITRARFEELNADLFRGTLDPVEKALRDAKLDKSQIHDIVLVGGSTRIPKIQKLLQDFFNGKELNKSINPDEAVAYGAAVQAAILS
Procedure: as §1, §2, §3

[3] = target: T3, HSP72 (Homo sapiens, UniProt P0DMV8); assay: Ligand observed NMR (CPMG) binding to HSP72 with ATP competition; conditions: 0.5 mM compound, 20 µM HSP72, ± 100 µM ATP; 1D CPMG
T3 construct: 6xHis followed by HRV 3C protease site (N); made in house; host or cells: E. coli BL21-AI
T3 sequence (P0DMV8 whole entry): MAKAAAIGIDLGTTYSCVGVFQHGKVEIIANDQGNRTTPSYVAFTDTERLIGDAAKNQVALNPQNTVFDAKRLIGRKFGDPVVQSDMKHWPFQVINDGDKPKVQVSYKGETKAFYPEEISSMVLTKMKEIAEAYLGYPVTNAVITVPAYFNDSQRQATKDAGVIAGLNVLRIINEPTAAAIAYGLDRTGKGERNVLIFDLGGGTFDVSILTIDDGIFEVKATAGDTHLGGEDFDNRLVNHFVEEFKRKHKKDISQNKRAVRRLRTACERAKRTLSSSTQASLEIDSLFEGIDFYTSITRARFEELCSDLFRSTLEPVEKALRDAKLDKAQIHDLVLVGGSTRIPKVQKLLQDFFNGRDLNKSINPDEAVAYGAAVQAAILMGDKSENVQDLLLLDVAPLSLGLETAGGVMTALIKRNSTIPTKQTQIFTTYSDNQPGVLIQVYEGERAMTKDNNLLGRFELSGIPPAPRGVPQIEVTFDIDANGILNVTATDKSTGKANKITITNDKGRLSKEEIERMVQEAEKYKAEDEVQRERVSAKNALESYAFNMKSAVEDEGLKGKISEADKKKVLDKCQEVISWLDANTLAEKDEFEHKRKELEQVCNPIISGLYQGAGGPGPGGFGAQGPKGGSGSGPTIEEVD
Procedure: Ligand observed NMR experiments
NMR experiments were conducted at a 1H frequency of 500 MHz using a Bruker Avance 500 spectrometer (Bruker, […]) equipped with a 1.7 mm TXI probe. All data were acquired and processed using Bruker Topspin 3.2. The Relaxation edited 1H-NMR spectrum was acquired at 295K using the CPMG sequence with a spin-lock time of 600 ms. The water signal was suppressed using presaturation during relaxation delay (2 s) and by using the Watergate sequence subsequent to the CPMG sequence. For each spectrum 64 transients were acquired. The three samples for which spectra were collected consisted of 50 mM phosphate buffer at pH 7.5, 10% (v/v) D2O and 0.5 mM compound 30, 0.5 mM compound 30 in the presence of 20 µM HSP72, and 0.5 mM compound 30 in the presence of 20 µM HSP72 and 100 µM ATP respectively (see Figure S 8).

[4] = target: T4, S275F HSC70-NBD (Homo sapiens, UniProt P11142, S275F); assay: SPR binding to S275F HSC70-NBD mutant
T4 construct: WT HSPA8 (HSC70) residues 1 to 381; GST (N, cleaved yes); made in house; host or cells: E. coli BL21-AI (expressed as described for FL-HSP72)
T4 sequence (P11142 1-381 S275F): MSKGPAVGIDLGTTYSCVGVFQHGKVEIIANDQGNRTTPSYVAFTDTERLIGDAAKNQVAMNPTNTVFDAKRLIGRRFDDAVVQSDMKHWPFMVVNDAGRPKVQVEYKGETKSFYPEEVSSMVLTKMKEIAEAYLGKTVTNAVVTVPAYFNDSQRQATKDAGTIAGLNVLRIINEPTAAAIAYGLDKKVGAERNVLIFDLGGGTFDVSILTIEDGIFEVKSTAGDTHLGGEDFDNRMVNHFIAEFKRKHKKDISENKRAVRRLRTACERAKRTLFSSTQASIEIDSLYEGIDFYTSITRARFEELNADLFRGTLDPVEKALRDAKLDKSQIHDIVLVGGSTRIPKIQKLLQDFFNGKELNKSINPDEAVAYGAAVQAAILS
Procedure: SPR experiments were carried out using a Biacore T200 (GE Healthcare) at 25 °C. Amine coupling chemistry was used to immobilise the HSC70 NBD domain and S275W, S275F and S275A HSC70-NBD mutant proteins on a carboxymethyl-5′-dextran (CM5) sensor chip. The chip’s surface was activated with a 10 min injection of a 1:1 mixture of 100 mM N-hydroxysuccinimide and 400 mM 1-ethyl-3-(3-dimethylaminopropyl)-carbodiimide. The HSC70 proteins (70 μg/mL in 10 mM sodium acetate, 750 μM ADP, pH 5.0) were immobilised on the surface over a 10 min injection period. The remaining activated groups on the surface were blocked with a 7 min injection of 1 M ethanolamine at pH 8.5. For all the above procedures the flow rate was maintained at 10 μL/min and a 1x phosphate buffered saline running buffer (PBS running buffer: 10 mM NaHPO4/NaH2PO4 pH 7.4, 2.7 mM KCl, 137 mM NaCl) was used during immobilisation. Approximately ~13,000 response units (RU) of protein could be routinely captured on the CM5 chip on flow cells two to four. Flow cell one was left unmodified as the reference surface. Our in-house fragment library of 1962 fragments at a stock concentration of 100 mM in 100% (v/v) was screened. SPR screening plates were prepared by dispensing of 0.1 μL of each fragment in 384-well polypropylene V-bottomed plates (Greiner) using an ECHO 550 acoustic liquid dispenser (Labcyte) followed by addition of fresh DMSO and running buffer to give a final fragment concentration of 125 μM in 5% (v/v) DMSO in an assay volume of 80 μL.
The full fragment screen was carried out against freshly immobilised WT-HSC70 NBD and the S275W and S275F HSC70-NBD mutants, using the same experimental setting as for the clean screen and a final fragment concentration of 125 μM. Injections of running buffer and of 125 μM adenosine, which was used as a positive control to monitor the health of the protein, were carried out at intervals of 35 cycles throughout the screen. In addition, a DMSO correction curve, prepared as described in the GE manual, was used to correct the effects of the solvent on signal intensity. Raw SPR data from the single point screen was processed and analysed using Pipeline Pilot version 8.0.1.500[37]. Firstly, the reported binding level for each fragment was corrected by subtraction of the buffer blank. Secondly, the values were corrected for the molecular weight of each fragment and the binding was normalised to the binding level observed for the closest adenosine control. […] However, fragments with a binding level exceeding two times the theoretical Rmax were excluded, as we considered this an indication of superstoichiometric binding. Finally, fragments showing preferred binding to wild-type HSC70-NBD versus the HSC70-NBD mutants with a blocked adenine sub pocket were identified by plotting the binding levels of the fragments to wild-type HSC70-NBD against the binding levels of the respective mutant HSC70-NBD variants and added to the primary hit list. In total this procedure yielded 54 initial fragment hits.

[5] = target: HSP70; parameters: method as in PMID 19256508; conditions: read-out: SPR Kd; cited from earlier work

T1 sequence (P11142 1-381): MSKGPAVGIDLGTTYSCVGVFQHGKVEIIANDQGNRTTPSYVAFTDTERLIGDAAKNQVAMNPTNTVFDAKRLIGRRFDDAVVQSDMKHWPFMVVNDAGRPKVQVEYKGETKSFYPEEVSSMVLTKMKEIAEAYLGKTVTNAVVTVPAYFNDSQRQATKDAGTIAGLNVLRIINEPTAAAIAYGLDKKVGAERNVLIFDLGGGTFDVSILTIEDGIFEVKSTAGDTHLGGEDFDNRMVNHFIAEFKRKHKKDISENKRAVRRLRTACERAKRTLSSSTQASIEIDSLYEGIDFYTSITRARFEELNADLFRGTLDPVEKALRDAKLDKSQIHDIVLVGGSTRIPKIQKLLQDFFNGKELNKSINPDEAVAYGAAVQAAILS

Structure (SMILES) | Kd ([1]; SPR, 25 °C, mean ± standard deviation or standard error, triplicate unless marked duplicate/single) [µM] | LE (ligand efficiency) ([1]; calculated using the SPR Kd on WT HSC70-NBD) | Kd S275W HSC70-NBD ([2]; single measurement) | binding to HSP72 by ligand observed NMR [3] | binding to S275W HSC70-NBD mutant (in words) [2] | binding to S275F HSC70-NBD mutant (in words) [4] | Kd [5] [µM]
OC[C@H]1C[C@@H](Nc2ncnc3cccc(OCc4ccccn4)c23)[C@H](O)[C@@H]1O [Compound 30] | 75 | 0.20 | No binding | bind in the ATP-binding site | – | – | –
N#Cc1ccc(COC[C@H]2O[C@@H](n3c(NCc4ccc(Cl)c(Cl)c4)nc4c(N)ncnc43)[C@H](O)[C@@H]2O)cc1 [Compound 1, VER-155008] | – | – | – | – | abolished binding | abolished binding | 0.3
